From patent US10653693B2, “PRMT5 inhibitors and uses thereof” (Epizyme, Inc., priority 2014, dated 2020)
Like-named read-outs stand apart in the source and are kept apart here.

Experiments:
Granta-519 = assay: Long-term proliferation (LTP) assay; assay type: cell-based; conditions: Homo sapiens
Maver-1 = assay: Long-term proliferation (LTP) assay; assay type: cell-based; conditions: Homo sapiens
Mino = assay: Long-term proliferation (LTP) assay; assay type: cell-based; conditions: Homo sapiens
Maver-1 xenograft model = assay: 21 day mantle cell lymphoma xenograft study: TGI and tumor methyl mark; assay type: in vivo; conditions: all doses tested, day 21
Protocol: (§1) Data presented in this example were determined after analysis of 21 day samples of mantle cell lymphoma tumors. Cmin PK samples were taken prior to the last dose on day 21. Tumors were excised, weighed and processed for methyl mark. Methyl mark reduction was measured in tumor samples and is shown as percent of vehicle control (POC). Both SYM11 and sDMA Elisa were used to measure methyl mark and the data shown is averaged from 10 animals. Tumor growth inhibition was determined using tumor volume reduction at day 21 expressed as a percent of POC. In vivo inhibition curves were also generated and IC50 values determined. Plasma levels from each group are averaged from 5 animals. […] The average body weight loss (BWL) in all groups was <6%. All doses tested show >50% TGI. […] The average BWL in all groups was <4%. The average BWL in all groups was <8%, except in the 100 mg/kg does group were 4 animals exceeded BWL of 15%.

[1] = Body weight loss in Maver-1 xenograft study; assay type: in vivo; conditions: 21 days
Protocol: as §1

[2] = system: heme cancer cell lines (MCL, AML, MM, lymphoma); assay: Cell Titer-Glo growth/death assay; assay type: cell-based; conditions: several heme cancer cell lines incl. MCL, MM and lymphoma
Protocol: Heme cancer cells were treated with a PRMT5 inhibitor and a Cell Titer-Glo growth/death assay was performed.

[3] = system: p53 expression in Z138 cells; assay: p53 and p21 expression analysis (Western); assay type: cell-based, Human; conditions: Z138 mantle cell lymphoma cells
Protocol: Z138 cells were seeded at approximately 3×10^6 cells/dish in 10 cm tissue culture dishes in a volume of 10 mL IMDM+10% horse serum media. Cells were treated with 1 μM of Formula C for 1, 2, 3, 4, or 5 days. Cell pellets were collected by centrifuging at 500×g for 5 minutes, washing once with PBS, and freezing at −80° C. until ready to be processed.
Protein lysates were prepared by adding RIPA buffer (Sigma R0278) containing protease inhibitor (about 5× the volume of the cell pellet, or roughly 250 μL) to each cell pellet and pipetting to resuspend. Samples were sonicated with 10×1 second pulses then centrifuged at maximum speed (13,300 RPM) for 6 minutes. 200 μL of supernatant was transferred to a fresh Eppendorf tube, and pellets were discarded. Protein concentration was determined using a Pierce BCA Protein Assay kit.
Protein gel samples were prepared by combining 20 μg of lysate with appropriate volumes of Life Technologies NuPage Sample Reducing Agent, LDS Sample Buffer, and RIPA buffer. Gel samples were heated for 5-10 minutes at 100° C. in a heat block. A 15-well Invitrogen 4-12% Bis-Tris NuPAGE-SDS gel was loaded with a volume of 19 μL per well, and run in MES SDS buffer at 150V for about 1 hour or until maximal separation of bands was achieved.
Gels were transferred onto nitrocellulose membranes using an Invitrogen iBlot system. […]

[4] = system: SW48 colon cancer cells (SW48−/− vs SW48); assay: Sensitivity of cells lacking p53 versus wild-type; assay type: cell-based; conditions: based on EC50, gIC50, or gIC90
From the text: PRMT5 methylation of non-histone substrates (such as E2F1 and p53) also contributes to cancer cell growth and death. Results of Western blot and PCR experiments indicate PRMT5 inhibition leads to gene expression and splicing changes, ultimately resulting in the induction of p53 in cancer cells. A PRMT5 inhibitor of Formula C was used to generate the data in FIG. 21 and FIG. 22.

Z138 = assay: Cell cycle analysis (propidium iodide staining, FACS); assay type: cell-based, Human; conditions: 3 days
Protocol: Cells were seeded in 6-well tissue culture dishes in a volume of 3 mL IMDM+10% horse serum (supplemented with 0.5 μg/mL puromycin for transduced cell lines). Cells were treated with DMSO, 10 nM Formula C, or 200 nM Formula C for 3 days. Cells were harvested by centrifuging at 2,000 RPM for 5 minutes, washing with PBS, washing with citrate buffer, then aspirating excess citrate buffer to leave approximately 50 μL remaining above pellet. Pellets were frozen at −80° C. until ready to process.
Pellets were propidium iodide-stained for FACS using the Becton Dickinson CycleTEST PLUS kit (cat. #340242). Solutions A, B, and C of the kit were thawed and then kept on ice. Cell pellets were thawed rapidly at 37° C. and pipetted up and down to resuspend in 50 μL of citrate buffer.
Approximately one quarter of the cell pellet volume was transferred to a fresh Eppendorf tube. 250 μL of solution A was added to each sample and then inverted 7 to 10 times. Samples were placed on a shaker at 150 RPM for 10 minutes at room temperature. Samples were on ice when not shaking. 250 μL of solution B and 250 μL of solution C were added to each sample in the same fashion. […]
Samples were processed by FACS on a Becton Dickinson FACSCalibur machine. The percentage of cells in each cell cycle stage was determined using the cell cycle function on the gated single cell population with FlowJo V10 software.

[5] = 264 h, 11-day treatment, N = 1, read-out: Formula B LTP IC50
[6] = 264 h, 11-day treatment, N = 1, read-out: Formula B LTP IC90

CC(=O)N1CCC(Nc2cc(C(=O)NC[C@H](O)CN3CCc4ccccc4C3)ccn2)CC1 [Formula B]
IC50 (Granta-519; [5]): 12 nM
IC90 (Granta-519; [6]): 77 nM
IC50 (Granta-519; Table 3, read-out: LTP IC50): 6 nM
IC50 (Maver-1; Maver1, 264 h, 11-day treatment, N = 1, read-out: Formula B LTP IC50): 26 nM
IC90 (Maver-1; Maver1, 264 h, 11-day treatment, N = 1, read-out: Formula B LTP IC90): 73 nM
IC50 (Maver-1; Maver1, Table 3, read-out: LTP IC50): 15.3 nM
IC50 (Mino; [5]): 119 nM
IC90 (Mino; [6]): 611 nM
IC50 (Mino; Table 3, read-out: LTP IC50): 64.6 nM
Tumor growth inhibition (TGI) (Maver-1 xenograft model): > 50%
average body weight loss (BWL) in all groups [1]: < 4%

O=C(NC[C@H](O)CN1CCc2ccccc2C1)c1ccnc(NC2CCC2)c1 [Formula C]
proliferation in heme cancer cell lines [2]: inhibits proliferation
p53 expression [3]: increases
sensitivity of cells lacking p53 compared to wild-type [4]: less sensitive
cell cycle effect (Z138; 10 nM): G1 arrest
cell cycle effect (Z138; 200 nM): cell death
